Read-outs that look alike come from different tables or passages of the source.
What was measured:
[1] = Kinetic solubility in PBS; assay type: physicochemical; details: aqueous buffer, kinetic from dmso stock
Description: The kinetic solubility of test articles was determined in PBS at pH 2.0 and pH 7.4 in duplicate. A stock solution of test compound in DMSO (10 mM) was incubated at RT for 2 hours with shaking at 1,100 RPM. The sample was then filtered using a vacuum manifold, diluted, and analyzed by LC-MS/MS. Chromatographic conditions: Phenomenex Synergi 4μ Hydro-PR 80A column (2.0×30 mm) coupled with pre-guard column; mobile phase=0.1% formic acid in acetonitrile and 0.1% formic acid in water; flowrate=0.65 mL/min; column temperature=40° C.; injection volume: 3 μL.
Mass conditions: Turbo spray ion source; ESI ionization model; MRM scan type; Collison gas=6 L/min; Curtain gas=30 L/min; Nebulize gas=50 L/min; Auxiliary gas=50 L/min; Temperature=500 degrees C.; Ion spray voltage=+5500 v (positive MRM).
The filtered solution was analyzed and quantified against a standard of known concentration in DMSO using UPLC coupled with mass spectral peak identification and quantitation. Solubility values of the test articles were calculated using Microsoft Excel as follows (DF is the dilution factor): […]

[2] = In vitro human hepatocyte stability; assay type: in vitro ADME; details: cryopreserved human hepatocytes (pooled donor), human hepatocytes 0.5×10^6 cells/mL, read-out: Scaled-up unbound CLint
Description: The metabolic stability of test articles (1 μM) in commercially sourced, pooled donor, cryopreserved human hepatocytes (0.5×10^6 cells/mL) was determined in duplicate. The CLint reactions (250 μL) were initiated by addition of test compound. Aliquots (25 μL) were taken at 0, 15, 30, 45, 60, 90, 120 and 240 minutes and then protein crashed with ice-cold acetonitrile containing internal standard then centrifuged (3220 g for 25 minutes). Supernatant was used for LC-MS/MS analysis. The in vitro half-life (in vitro t1/2) was determined from the slope value: in vitro t1/2=−0.693/k. Conversion of the in vitro t1/2 (in min) into the scale-up unbound intrinsic clearance (Scaled-up unbound CLint, in mL/min/kg) was done using the following equation (mean of duplicate determinations), with data shown in Table 5: Scaled-up unbound CLint=kV/N×scaling factor. V=incubation volume (0.25 mL); N=number of hepatocytes per well ([…]). Scaling factors for in vivo intrinsic clearance prediction are listed below: […]

MAGL [3] = biological target: T1, MAGL (Mus musculus, UniProt O35678); test: In vivo MAGL inhibition in mouse brain proteomes after oral gavage; details: 5 mg/kg oral gavage, 4 h after administration, read-out: MAGL % inh. 5 mg/kg (mouse)
T1 construct: brain proteomes were prepared and analyzed according to previously established methods; from tissue; host or cells: brain of wild-type C57Bl/6J mice
T1 sequence (O35678 1-303): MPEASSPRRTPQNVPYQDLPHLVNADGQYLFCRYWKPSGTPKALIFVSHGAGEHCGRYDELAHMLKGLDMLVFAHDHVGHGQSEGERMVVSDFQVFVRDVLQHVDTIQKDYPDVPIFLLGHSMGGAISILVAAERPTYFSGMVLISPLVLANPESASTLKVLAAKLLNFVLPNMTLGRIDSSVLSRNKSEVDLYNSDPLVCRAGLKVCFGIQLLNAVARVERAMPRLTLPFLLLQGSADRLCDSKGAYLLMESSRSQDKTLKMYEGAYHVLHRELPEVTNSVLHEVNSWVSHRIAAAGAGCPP
Description: Inhibitors were administered to wild-type C57B1/6J by oral gavage in a vehicle of polyethylene glycol. Each animal was sacrificed 4 h following administration and brain proteomes were prepared and analyzed according to previously established methods (See Niphakis, M. J., et al. (2011) ACS Chem. Neurosci. and Long, J. Z., et al. Nat. Chem. Biol. 5:37-44).

MAGL [4] = biological target: T2, MAGL (Homo sapiens, UniProt Q99685); test: In vitro competitive activity-based protein profiling (PC3 human cell membrane proteomes); assay type: biochemical
T2 construct: PC3 human cell membrane proteomes; endogenous in cells; host or cells: PC3 human cells (membrane proteome)
T2 sequence (Q99685 1-303): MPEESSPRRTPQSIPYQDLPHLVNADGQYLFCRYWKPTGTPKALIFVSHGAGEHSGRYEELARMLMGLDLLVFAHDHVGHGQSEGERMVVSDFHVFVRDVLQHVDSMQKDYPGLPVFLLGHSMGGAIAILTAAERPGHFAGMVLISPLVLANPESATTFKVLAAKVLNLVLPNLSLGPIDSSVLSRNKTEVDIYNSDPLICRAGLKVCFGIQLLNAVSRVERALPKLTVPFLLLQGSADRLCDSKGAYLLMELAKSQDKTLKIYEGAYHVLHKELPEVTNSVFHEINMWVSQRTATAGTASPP
Description: PC3 human cell membrane proteomes (50 µL, 2.0 mg/mL total protein concentration) were preincubated with varying concentrations of inhibitors at 37° C. After 30 min, the ABPP probe JW912-Bodipy (1.0 µL, 50 µM in DMSO) was added and the mixture was incubated for 30 min at room temperature. Reactions were quenched with SDS loading buffer (15 μL-4×) and run on SDS-PAGE. Following gel imaging, serine hydrolase activity was determined by measuring fluorescent intensity of gel bands corresponding to MAGL using ImageJ 1.43u software. Intensities were converted to percent enzyme activity by normalizing to DMSO controls. IC50 values were determined by fitting percent enzyme activities to a non-linear regression, 4-parameter, sigmoidal dose response function in Prism GraphPad.

[5] = PBS pH 7.4, RT, read-out: pH 7.4 Solubility (kinetic)

`O=C(Nc1ccc(-n2cccn2)nc1)C1CC12CCN(C(=O)OC(C(F)(F)F)C(F)(F)F)CC2` (single isomer, unassigned) [Example 29, 1,1,1,3,3,3-hexafluoropropan-2-yl (R or S)-1-((6-(1H-pyrazol-1-yl)pyridin-3-yl)carbamoyl)-6-azaspiro[2.5]octane-6-carboxylate] showed a solubility kinetic at 2 h [1, 5] of 8.63 µM and a CLint scaled at 1 μM [2] of 32.7 mL/min/kg.
`COc1ccc(NC(=O)[C@@H]2CC23CCN(C(=O)OC(C(F)(F)F)C(F)(F)F)CC3)cn1` (single isomer, unassigned) [Example 36] gave an inhibition at 5 mg/kg (MAGL [3]) of 0%.
Work on `COc1ccc(NC(=O)[C@H]2CC23CCN(C(=O)OC(C(F)(F)F)C(F)(F)F)CC3)cn1` (single isomer, unassigned) [Example 37] yielded an inhibition at 5 mg/kg (MAGL [3]) of 25%.
With `CN(C(=O)C1CC12CCN(C(=O)OC(C(F)(F)F)C(F)(F)F)CC2)c1cccnc1` (single isomer, unassigned) [Example 43, 1,1,1,3,3,3-hexafluoropropan-2-yl (R or S)-1-(methyl(pyridin-3-yl)carbamoyl)-6-azaspiro[2.5]octane-6-carboxylate] the “MAGL % inh. 1 µM (human PC3)” value (MAGL [4]) was 100%, the inhibition at 5 mg/kg (MAGL [3]) was 100% and the solubility kinetic at 2 h [1, 5] was 233 µM.
For `O=C(OC(C(F)(F)F)C(F)(F)F)N1CCC2(CC1)CC2C(=O)N1CCc2ncncc2C1` (single isomer, unassigned) [Example 60, 1,1,1,3,3,3-hexafluoropropan-2-yl (R or S)-1-(5,6,7,8-tetrahydropyrido[4,3-d]pyrimidine-6-carbonyl)-6-azaspiro[2.5]octane-6-carboxylate], the “MAGL % inh. 1 µM (human PC3)” value (MAGL [4]) was 100% and the solubility kinetic at 2 h [1, 5] was 259 µM.
With `O=C(NCc1cccc(C(F)(F)F)n1)C1CC12CCN(C(=O)OC(C(F)(F)F)C(F)(F)F)CC2` (single isomer, unassigned) [Example 76, 1,1,1,3,3,3-hexafluoropropan-2-yl (R or S)-1-(((6-(trifluoromethyl)pyridin-2-yl)methyl)carbamoyl)-6-azaspiro[2.5]octane-6-carboxylate] the “MAGL % inh. 1 µM (human PC3)” value (MAGL [4]) was 100% and the solubility kinetic at 2 h [1, 5] was 1.33 µM.
For `O=C(Nc1ccc(C(F)(F)F)nc1)C1CC12CCN(C(=O)OC(C(F)(F)F)C(F)(F)F)CC2` (single isomer, unassigned) [Example 78, 1,1,1,3,3,3-hexafluoropropan-2-yl (R or S)-1-((6-(trifluoromethyl)pyridin-3-yl)carbamoyl)-6-azaspiro[2.5]octane-6-carboxylate], the “MAGL % inh. 1 µM (human PC3)” value (MAGL [4]) was 100%, the solubility kinetic at 2 h ([1]; PBS pH 2.0, RT, read-out: pH 2 Solubility (kinetic)) was 17 µM and the solubility kinetic at 2 h [1, 5] was 12.6 µM.
`Cc1ccc(NC(=O)C2CC23CCN(C(=O)OC(C(F)(F)F)C(F)(F)F)CC3)cn1` (single isomer, unassigned) [Example 81, 1,1,1,3,3,3-hexafluoropropan-2-yl (R or S)-1-((6-methylpyridin-3-yl)carbamoyl)-6-azaspiro[2.5]octane-6-carboxylate] gave an inhibition at 5 mg/kg (MAGL [3]) of 25% and a solubility kinetic at 2 h [1, 5] of 130 µM.
In the case of `O=C(Nc1cnc(C(F)(F)F)nc1)C1CC12CCN(C(=O)OC(C(F)(F)F)C(F)(F)F)CC2` (single isomer, unassigned) [Example 99, 1,1,1,3,3,3-hexafluoropropan-2-yl (R or S)-1-((2-(trifluoromethyl)pyrimidin-5-yl)carbamoyl)-6-azaspiro[2.5]octane-6-carboxylate], the “MAGL % inh. 1 µM (human PC3)” value (MAGL [4]) is reported as 100% and the solubility kinetic at 2 h [1, 5] is reported as 28.5 µM.
With `Cc1ncc(NC(=O)C2CC23CCN(C(=O)OC(C(F)(F)F)C(F)(F)F)CC3)cn1` (single isomer, unassigned) [Example 103, 1,1,1,3,3,3-hexafluoropropan-2-yl (R or S)-1-((2-methylpyrimidin-5-yl)carbamoyl)-6-azaspiro[2.5]octane-6-carboxylate] the inhibition at 5 mg/kg (MAGL [3]) was 50%.
In the case of `Cc1ccc(NC(=O)[C@H]2CC23CCN(C(=O)OC(C(F)(F)F)C(F)(F)F)CC3)nn1` (single isomer, unassigned) [Example 106], the inhibition at 5 mg/kg (MAGL [3]) is reported as 0%.
Molecule `O=C(Nc1ccnnc1)C1CC12CCN(C(=O)OC(C(F)(F)F)C(F)(F)F)CC2` (single isomer, unassigned) [Example 108, 1,1,1,3,3,3-hexafluoropropan-2-yl (R or S)-1-(pyridazin-4-ylcarbamoyl)-6-azaspiro[2.5]octane-6-carboxylate] has an inhibition at 5 mg/kg (MAGL [3]) of 75%.
`O=C(Nc1cncs1)C1CC12CCN(C(=O)OC(C(F)(F)F)C(F)(F)F)CC2` (single isomer, unassigned) [Example 129, 1,1,1,3,3,3-hexafluoropropan-2-yl (R or S)-1-(thiazol-5-ylcarbamoyl)-6-azaspiro[2.5]octane-6-carboxylate] showed an inhibition at 5 mg/kg (MAGL [3]) of 50% and a CLint scaled at 1 μM [2] of 53.6 mL/min/kg.
In the case of `CC1(NC(=O)C2CC23CCN(C(=O)OC(C(F)(F)F)C(F)(F)F)CC3)CCOCC1` (single isomer, unassigned) [Example 132, 1,1,1,3,3,3-hexafluoropropan-2-yl (R or S)-1-((4-methyltetrahydro-2H-pyran-4-yl)carbamoyl)-6-azaspiro[2.5]octane-6-carboxylate], the inhibition at 5 mg/kg (MAGL [3]) is reported as 100% and the CLint scaled at 1 μM [2] is reported as 44.2 mL/min/kg.
For `O=C(NCc1ccccc1)[C@H]1CC12CCN(C(=O)OC(C(F)(F)F)C(F)(F)F)CC2` (single isomer, unassigned) [Example 150], the CLint scaled at 1 μM [2] was 88.8 mL/min/kg.
For `CC1(CNC(=O)C2CC23CCN(C(=O)OC(C(F)(F)F)C(F)(F)F)CC3)CCOCC1` (single isomer, unassigned) [Example 168, 1,1,1,3,3,3-hexafluoropropan-2-yl (R or S)-1-(((4-methyltetrahydro-2H-pyran-4-yl)methyl)carbamoyl)-6-azaspiro[2.5]octane-6-carboxylate], the CLint scaled at 1 μM [2] was 61.4 mL/min/kg.
In the case of `CS(=O)(=O)Nc1ccc(NC(=O)C2CC23CCN(C(=O)OC(C(F)(F)F)C(F)(F)F)CC3)cn1` (single isomer, unassigned) [Example 181, 1,1,1,3,3,3-hexafluoropropan-2-yl (R or S)-1-((6-(methylsulfonamido)pyridin-3-yl)carbamoyl)-6-azaspiro[2.5]octane-6-carboxylate], the solubility kinetic at 2 h [1, 5] is reported as 296 µM and the CLint scaled at 1 μM [2] is reported as 1.94 mL/min/kg.
Molecule `O=C(Nc1cccnn1)[C@@H]1CC12CCN(C(=O)OC(C(F)(F)F)C(F)(F)F)CC2` [Example 5, 1,1,1,3,3,3-Hexafluoropropan-2-yl (R)-1-(pyridazin-3-ylcarbamoyl)-6-azaspiro[2.5]octane-6-carboxylate] has an inhibition at 5 mg/kg (MAGL [3]) of 0%.

— patent US11434222B2, “MAGL inhibitors” (H. LUNDBECK A/S, priority 2020, dated 2022)
